Laboratory results reported in patent publication US8501770B2 (ArQule, Inc., priority 2009, dated 2013).
pIC50: −log10 of the molar value.

Each compound was assayed against Full-length inactive AKT1 (Homo sapiens, UniProt P31749) (assay: Inactive Akt Alpha Screen Assay). Details: values not marked with "*"; read-out: Akt1 IC50, (AlphaScreen).
Type: biochemical
Method in brief: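 AlphaScreen read-out (excitation 640 nm, emission 570 nm) after 90 min incubation at room temperature in the dark. Signal comes from crosstide phosphorylation by AKT1, which was activated by added PDK1, MAPKAPK2, ATP and lipid vesicles, captured via phospho-AKT substrate antibody and streptavidin beads.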

Sequence of Full-length inactive AKT1 (P31749 whole entry): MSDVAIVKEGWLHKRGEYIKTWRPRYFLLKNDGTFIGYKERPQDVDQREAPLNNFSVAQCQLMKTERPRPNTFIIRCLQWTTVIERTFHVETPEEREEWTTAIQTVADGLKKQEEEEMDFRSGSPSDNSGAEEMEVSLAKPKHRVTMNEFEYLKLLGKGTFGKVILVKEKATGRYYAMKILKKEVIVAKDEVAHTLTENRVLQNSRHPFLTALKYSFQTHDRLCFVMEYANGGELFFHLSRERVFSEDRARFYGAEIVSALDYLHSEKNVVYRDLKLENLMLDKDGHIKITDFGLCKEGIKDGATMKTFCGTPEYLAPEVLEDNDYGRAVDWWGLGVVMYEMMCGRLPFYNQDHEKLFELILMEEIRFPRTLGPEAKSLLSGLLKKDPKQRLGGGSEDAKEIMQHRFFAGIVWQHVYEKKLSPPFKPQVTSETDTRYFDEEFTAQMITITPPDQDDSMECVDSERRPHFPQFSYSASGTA

Row | SMILES | pIC50
1 | Nc1ncccc1-c1nc2ccc(-c3cnccn3)nc2n1-c1ccc(C2(N)CCC2)cc1 [Example 401, 3-(3-(4-(1-aminocyclobutyl)phenyl)-5-(pyrazin-2-yl)-3H-imidazo[4,5-b]pyridin-2-yl)pyridin-2-amine] | 8.19
2 | CC(=O)Nc1ccc(-c2cnc3c(c2)nc(-c2cccnc2N)n3-c2cccc(CNC(=O)c3cccc(F)c3)c2)cc1 [Example 402, N-(3-(6-(4-acetamidophenyl)-2-(2-aminopyridin-3-yl)-3H-imidazo[4,5-b]pyridin-3-yl)benzyl)-3-fluorobenzamide] | 5.55
3 | Nc1ncccc1-c1nc2ccc(-c3ccc(N4CCOCC4)nc3)nc2n1-c1ccc(C2(N)CCC2)cc1 [Example 404, 3-{3-[4-(1-aminocyclobutyl)phenyl]-5-(6-morpholin-4-ylpyridin-3-yl)-3H-imidazo[4,5-b]pyridin-2-yl}pyridin-2-amine] | 8.11
4 | CC(C)C(=O)Nc1cccc(-c2ccc3nc(-c4cccnc4N)n(-c4ccc(C5(N)CCC5)cc4)c3n2)c1 [Example 405, N-(3-{3-[4-(1-aminocyclobutyl)phenyl]-2-(2-aminopyridin-3-yl)-3H-imidazo[4,5-b]pyridin-5-yl}phenyl)-2-methylpropanamide] | 7.89
5 | Nc1ncccc1-c1nc2ccc(-c3cccc(NS(=O)(=O)C4CC4)c3)nc2n1-c1ccc(C2(N)CCC2)cc1 [Example 406, N-(3-{3-[4-(1-aminocyclobutyl)phenyl]-2-(2-aminopyridin-3-yl)-3H-imidazo[4,5-b]pyridin-5-yl}phenyl)cyclopropanesulfonamide] | 8.59
6 | Cc1ccc(S(=O)(=O)Nc2cccc(-c3ccc4nc(-c5cccnc5N)n(-c5ccc(C6(N)CCC6)cc5)c4n3)c2)cc1 [Example 407, N-(3-{3-[4-(1-aminocyclobutyl)phenyl]-2-(2-aminopyridin-3-yl)-3H-imidazo[4,5-b]pyridin-5-yl}phenyl)-4-methylbenzenesulfonamide] | 8.55
7 | COc1cc(OC)cc(-c2ccc3nc(-c4cccnc4N)n(-c4ccc(C5(N)CCC5)cc4)c3n2)c1 [Example 411, 3-{3-[4-(1-aminocyclobutyl)phenyl]-5-(3,5-dimethoxyphenyl)-3H-imidazo[4,5-b]pyridin-2-yl}pyridin-2-amine] | 8.35
8 | COc1ccc(F)c(-c2ccc3nc(-c4cccnc4N)n(-c4ccc(C5(N)CCC5)cc4)c3n2)c1 [Example 413, 3-{3-[4-(1-aminocyclobutyl)phenyl]-5-(2-fluoro-5-methoxyphenyl)-3H-imidazo[4,5-b]pyridin-2-yl}pyridin-2-amine] | 8.15
9 | Nc1ncccc1-c1nc2cccnc2n1-c1ccc(C2(N)CCC2)cc1 [Example 415, 3-{3-[4-(1-aminocyclobutyl)phenyl]-3H-imidazo[4,5-b]pyridin-2-yl}pyridin-2-amine] | 7.89
10 | Nc1ncccc1-c1nc2ccc(-c3cc[nH]n3)nc2n1-c1ccc(C2(N)CCC2)cc1 [Example 418, 3-{3-[4-(1-aminocyclobutyl)phenyl]-5-(1H-pyrazol-3-yl)-3H-imidazo[4,5-b]pyridin-2-yl}pyridin-2-amine] | 8.09
11 | COc1cc(F)cc(-c2ccc3nc(-c4cccnc4N)n(-c4ccc(C5(N)CCC5)cc4)c3n2)c1 [Example 420, 3-{3-[4-(1-aminocyclobutyl)phenyl]-5-(3-fluoro-5-methoxyphenyl)-3H-imidazo[4,5-b]pyridin-2-yl}pyridin-2-amine] | 8.27
12 | COc1cccc(-c2ccc3nc(-c4cccnc4N)n(-c4ccc(C5(N)CCC5)cc4)c3n2)c1F [Example 421, 3-{3-[4-(1-aminocyclobutyl)phenyl]-5-(2-fluoro-3-methoxyphenyl)-3H-imidazo[4,5-b]pyridin-2-yl}pyridin-2-amine] | 7.77
13 | CCCOc1cccc(-c2ccc3nc(-c4cccnc4N)n(-c4ccc(C5(N)CCC5)cc4)c3n2)c1 [Example 422, 3-{3-[4-(1-aminocyclobutyl)phenyl]-5-(3-propoxyphenyl)-3H-imidazo[4,5-b]pyridin-2-yl}pyridin-2-amine] | 7.96
14 | Nc1ncccc1-c1nc2ccc(-c3cc4ccccc4o3)nc2n1-c1ccc(C2(N)CCC2)cc1 [Example 423, 3-{3-[4-(1-aminocyclobutyl)phenyl]-5-(1-benzofuran-2-yl)-3H-imidazo[4,5-b]pyridin-2-yl}pyridin-2-amine] | 8.18
15 | Nc1ncccc1-c1nc2ccc(-c3nccs3)nc2n1-c1ccc(C2(N)CCC2)cc1 [Example 425, 3-{3-[4-(1-aminocyclobutyl)phenyl]-5-(1,3-thiazol-2-yl)-3H-imidazo[4,5-b]pyridin-2-yl}pyridin-2-amine] | 8.00
16 | Nc1ncccc1-c1nc2ccc(-c3cccc(OC(F)(F)F)c3)nc2n1-c1ccc(C2(N)CCC2)cc1 [Example 426, 3-{3-[4-(1-aminocyclobutyl)phenyl]-5-[3-(trifluoromethoxy)phenyl]-3H-imidazo[4,5-b]pyridin-2-yl}pyridin-2-amine] | 8.30

Next, values leading:

Row | pIC50 | SMILES
17 | 8.19 | CN(C)Cc1cccc(-c2ccc3nc(-c4cccnc4N)n(-c4ccc(C5(N)CCC5)cc4)c3n2)c1 [Example 398, 3-(3-(4-(1-aminocyclobutyl)phenyl)-5-(3-((dimethylamino)methyl)phenyl)-3H-imidazo[4,5-b]pyridin-2-yl)pyridin-2-amine]
18 | 7.68 | CN(C)C(=O)c1ccc(-c2ccc3nc(-c4cccnc4N)n(-c4ccc(C5(N)CCC5)cc4)c3n2)cc1 [Example 399, 4-(3-(4-(1-aminocyclobutyl)phenyl)-2-(2-aminopyridin-3-yl)-3H-imidazo[4,5-b]pyridin-5-yl)-N,N-dimethylbenzamide]
19 | 7.89 | CNC(=O)c1ccc(-c2ccc3nc(-c4cccnc4N)n(-c4ccc(C5(N)CCC5)cc4)c3n2)cc1 [Example 400, 4-(3-(4-(1-aminocyclobutyl)phenyl)-2-(2-aminopyridin-3-yl)-3H-imidazo[4,5-b]pyridin-5-yl)-N-methylbenzamide]
20 | 8.35 | CS(=O)(=O)Nc1ccc(-c2ccc3nc(-c4cccnc4N)n(-c4ccc(C5(N)CCC5)cc4)c3n2)cc1 [Example 403, N-(4-{3-[4-(1-aminocyclobutyl)phenyl]-2-(2-aminopyridin-3-yl)-3H-imidazo[4,5-b]pyridin-5-yl}phenyl)methanesulfonamide]
21 | 8.62 | Nc1ncccc1-c1nc2ccc(-c3cc[nH]c3)nc2n1-c1ccc(C2(N)CCC2)cc1 [Example 408, 3-{3-[4-(1-aminocyclobutyl)phenyl]-5-(1H-pyrrol-3-yl)-3H-imidazo[4,5-b]pyridin-2-yl}pyridin-2-amine]
22 | 8.28 | CN(C)c1cccc(-c2ccc3nc(-c4cccnc4N)n(-c4ccc(C5(N)CCC5)cc4)c3n2)c1 [Example 409, 3-{3-[4-(1-aminocyclobutyl)phenyl]-5-[3-(dimethylamino)phenyl]-3H-imidazo[4,5-b]pyridin-2-yl}pyridin-2-amine]
23 | 8.01 | CN(C)c1ccc(-c2ccc3nc(-c4cccnc4N)n(-c4ccc(C5(N)CCC5)cc4)c3n2)cc1 [Example 410, 3-{3-[4-(1-aminocyclobutyl)phenyl]-5-[4-(dimethylamino)phenyl]-3H-imidazo[4,5-b]pyridin-2-yl}pyridin-2-amine]
24 | 8.40 | COCc1cccc(-c2ccc3nc(-c4cccnc4N)n(-c4ccc(C5(N)CCC5)cc4)c3n2)c1 [Example 412, 3-{3-[4-(1-aminocyclobutyl)phenyl]-5-[3-(methoxymethyl)phenyl]-3H-imidazo[4,5-b]pyridin-2-yl}pyridin-2-amine]
25 | 8.31 | COc1ccc(-c2ccc3nc(-c4cccnc4N)n(-c4ccc(C5(N)CCC5)cc4)c3n2)cc1OC [Example 414, 3-{3-[4-(1-aminocyclobutyl)phenyl]-5-(3,4-dimethoxyphenyl)-3H-imidazo[4,5-b]pyridin-2-yl}pyridin-2-amine]
26 | 8.38 | Nc1ncccc1-c1nc2ccc(-c3ccc4scnc4c3)nc2n1-c1ccc(C2(N)CCC2)cc1 [Example 416, 3-{3-[4-(1-aminocyclobutyl)phenyl]-5-(1,3-benzothiazol-5-yl)-3H-imidazo[4,5-b]pyridin-2-yl}pyridin-2-amine]
27 | 8.70 | COc1cc(-c2ccc3nc(-c4cccnc4N)n(-c4ccc(C5(N)CCC5)cc4)c3n2)ccc1N [Example 417, 3-{3-[4-(1-aminocyclobutyl)phenyl]-5-(4-amino-3-methoxyphenyl)-3H-imidazo[4,5-b]pyridin-2-yl}pyridin-2-amine]
28 | 8.57 | COc1cc(-c2ccc3nc(-c4cccnc4N)n(-c4ccc(C5(N)CCC5)cc4)c3n2)ccc1O [Example 419, 4-{3-[4-(1-aminocyclobutyl)phenyl]-2-(2-aminopyridin-3-yl)-3H-imidazo[4,5-b]pyridin-5-yl}-2-methoxyphenol]
29 | 8.03 | Nc1ncccc1-c1nc2ccc(-c3ccc(O)cc3)nc2n1-c1ccc(C2(N)CCC2)cc1 [Example 424, 4-{3-[4-(1-aminocyclobutyl)phenyl]-2-(2-aminopyridin-3-yl)-3H-imidazo[4,5-b]pyridin-5-yl}phenol]
30 | 8.00 | Nc1ncccc1-c1nc2ccc(-c3ccsc3)nc2n1-c1ccc(C2(N)CCC2)cc1 [Example 427, 3-{3-[4-(1-aminocyclobutyl)phenyl]-5-(3-thienyl)-3H-imidazo[4,5-b]pyridin-2-yl}pyridin-2-amine]
31 | 8.24 | COc1cc(-c2ccc3nc(-c4cccnc4N)n(-c4ccc(C5(N)CCC5)cc4)c3n2)ccc1F [Example 428, 3-{3-[4-(1-aminocyclobutyl)phenyl]-5-(4-fluoro-3-methoxyphenyl)-3H-imidazo[4,5-b]pyridin-2-yl}pyridin-2-amine]
32 | 8.02 | COc1ccc(-c2ccc3nc(-c4cccnc4N)n(-c4ccc(C5(N)CCC5)cc4)c3n2)cc1O [Example 429, 5-{3-[4-(1-aminocyclobutyl)phenyl]-2-(2-aminopyridin-3-yl)-3H-imidazo[4,5-b]pyridin-5-yl}-2-methoxyphenol]
33 | 8.42 | COc1cccc(-c2ccc3nc(-c4cccnc4N)n(-c4ccc(C5(N)CCC5)cc4)c3n2)c1O [Example 430, 2-{3-[4-(1-aminocyclobutyl)phenyl]-2-(2-aminopyridin-3-yl)-3H-imidazo[4,5-b]pyridin-5-yl}-6-methoxyphenol]
